Experimental data taken from patent US20140155415A1, “BENZ[…] BENZODIOXINE COMPOUNDS THAT INTERACT WITH G[…] FOR THE TREATMENT OF DIABETES” (priority 2011, published 2014).

Each compound was assayed against T1, GK-GKRP (interaction between glucokinase and glucokinase regulatory protein) (Homo sapiens, UniProt Q14397) (assay: GK-GKRP Binding Assay (Binding), AlphaScreen). Settings: not given.
T1 construct: made in house; host or cells: GKRP: baculovirus system
T1 sequence (Q14397 1-625): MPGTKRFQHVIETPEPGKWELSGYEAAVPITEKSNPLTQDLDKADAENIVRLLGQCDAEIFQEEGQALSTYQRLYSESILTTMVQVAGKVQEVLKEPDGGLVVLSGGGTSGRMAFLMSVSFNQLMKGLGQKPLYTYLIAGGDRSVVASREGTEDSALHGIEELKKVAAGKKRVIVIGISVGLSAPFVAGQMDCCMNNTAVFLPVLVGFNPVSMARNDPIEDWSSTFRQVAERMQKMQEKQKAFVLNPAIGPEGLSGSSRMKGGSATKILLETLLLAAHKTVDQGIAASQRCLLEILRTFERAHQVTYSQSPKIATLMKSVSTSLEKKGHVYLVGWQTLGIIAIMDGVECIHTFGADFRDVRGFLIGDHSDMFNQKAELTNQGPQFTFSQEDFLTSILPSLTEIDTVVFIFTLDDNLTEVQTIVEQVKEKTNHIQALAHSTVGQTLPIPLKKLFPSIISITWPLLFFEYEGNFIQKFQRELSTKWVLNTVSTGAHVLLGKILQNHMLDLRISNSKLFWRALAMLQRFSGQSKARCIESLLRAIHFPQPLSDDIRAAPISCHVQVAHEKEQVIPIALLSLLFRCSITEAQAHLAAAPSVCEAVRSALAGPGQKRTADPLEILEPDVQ
Method: GK-GKRP Binding Assay Protocol (Binding)
This assay is used to directly measure the interaction between glucokinase (GK) and glucokinase regulatory protein (GKRP). Begin by preparing the following solutions. Assay Buffer: 20 mM Tris, pH 7.5/0.05% BSA/1 mM DTT/1 μM sorbitol-6-phosphate. […] Combine the following reagents in a white 96-well half area plate. Pipette 14 μl of the diluted avi-tagged GKRP into each well. Add 1 μl of compound to be tested and incubate at room temperature for 20 minutes. After 20 minutes, add 5 μl of assay buffer containing 6 nM GK-fluorescein. […] Incubate in a dark room for 2 hours at room temperature. After 2 hours read the plate using an Envision plate reader (Perkin Elmer, Waltham Mass.).
Recombinant human glucokinase (hepatic) was purified and formulated in 50 mM Tris (pH 7.5), 150 mM NaCl and 20 mM glucose previous to labeling with fluorescein. […] Unreacted dye was removed by extensive dialysis into the final formulation buffer: 25 mM Tris (pH 7.2), 150 mM NaCl, 10% glycerol and 2 mM DTT. The human glucokinase regulatory protein construct was designed with a C-terminal avitag and was expressed in a baculovirus system. Purified GKRP was incubated overnight with recombinant biotin ligase in the presence of D-biotin, ATP and MgCl2. GKRP was isolated from reaction components by chromatography on a Superdex 200 size exclusion column into: 50 mM HEPES, 150 mM NaCl and 5 mM DTT. […] Proteins were quantitated according to their calculated molar extinction coefficients at A280 and were stored at −80° C.
(§1) In the Examples, the assays are referred to as “LCMS/MS” or “Binding.”

Row | IC50 [nM] | SMILES
1 | 2700 | COc1ccc(S(=O)(=O)NC(c2cc3ccccc3s2)c2ccccc2SC)cc1OC (racemic) [Example 74]
2 | 97 | O=S(=O)(N[C@@H](c1cc2ccccc2s1)c1ccccc1Cl)c1ccc2c(c1)OCC(O)CO2 (mixture of isomers) [Example 77, N—((R)-1-Benzothiophen-2-yl(2-chlorophenyl)methyl)-3-hydroxy-3,4-dihydro-2H-1,5-benzodioxepine-7-sulfonamide]

Same assay, conditions: avi-tagged GKRP, GK-fluorescein, AlphaScreen beads, 1 μM sorbitol-6-phosphate; read-out: GK-GKRP IC50 (Binding)

Row | SMILES | IC50 [nM]
3 | Cc1cccnc1[C@H](NS(=O)(=O)c1ccc2c(c1)OCCCO2)c1cc2ccccc2o1 (single isomer, unassigned) [Example 26 Peak #1] | > 33000
4 | O=S(=O)(N[C@H](c1nc2cccnc2s1)c1ccccc1Cl)c1ccc2c(c1)OCCCO2 (single isomer, unassigned) [Example 68 Peak #1] | 2000
5 | COc1cccnc1C(NS(=O)(=O)c1ccc2c(c1)OCCCO2)c1nc2cccnc2s1 (racemic) [Example 69, N-((3-methoxy-2-pyridinyl)([1,3]thiazolo[5,4-b]pyridin-2-yl)methyl)-3,4-dihydro-2H-1,5-benzodioxepine-7-sulfonamide] | 1500
6 | Nc1cc(C(NS(=O)(=O)c2ccc3c(c2)OCCCO3)c2cc3ccccc3o2)ccn1 (stereo not drawn) [Example 87, N-((2-Amino-4-pyridinyl)(1-benzofuran-2-yl)methyl)-3,4-dihydro-2H-1,5-benzodioxepine-7-sulfonamide] | 4880
7 | COc1ccc(S(=O)(=O)N[C@@H](c2cc3cccc(-c4cc(C(O)(C(F)(F)F)C(F)(F)F)ccn4)c3s2)c2ccccc2Cl)cc1OC [Example 82, N—((R)-(2-Chlorophenyl)(7-(4-(2,2,2-trifluoro-1-hydroxy-1-(trifluoromethyl)ethyl)-2-pyridinyl)-1-benzothiophen-2-yl)methyl)-3,4-dimethoxybenzenesulfonamide] | 907
8 | O=S(=O)(NC(c1ccccc1)c1cc2ccnc(Cl)c2s1)c1ccc2c(c1)OCCCO2 (racemic) [Example 80, N-((7-Chlorothieno[2,3-c]pyridin-2-yl)(phenyl)methyl)-3,4-dihydro-2H-1,5-benzodioxepine-7-sulfonamide] | 1100
9 | COc1ccccc1[C@H](NS(=O)(=O)c1ccc2c(c1)OCCCO2)c1nc2cccnc2s1 (single isomer, unassigned) [Example 67 Peak #1] | 2800

The remaining lines, values ahead:

Row | IC50 [nM] | SMILES
10 | 900 | CSc1ccccc1[C@H](NS(=O)(=O)c1ccc2c(c1)OCCCO2)c1nc2cccnc2s1 (single isomer, unassigned) [Example 65 Peak #1]
11 | 790 | O=S(=O)(N[C@@H](c1ccccc1)c1cc2cccc(-c3ccccn3)c2s1)c1ccc2c(c1)OCCCO2 (single isomer, unassigned) [Example 71 Peak #1]
12 | 620 | O=S(=O)(N[C@@H](c1cc2ccccc2s1)c1ccccc1Cl)c1ccc2c(c1)OCC(F)(F)CO2 [Example 76, N—((R)-1-Benzothiophen-2-yl(2-chlorophenyl)methyl)-3,3-difluoro-3,4-dihydro-2H-1,5-benzodioxepine-7-sulfonamide]
13 | 276 | COc1ccc(S(=O)(=O)N[C@@H](c2cc3cccc(-c4cc([C@@](C)(O)C(F)(F)F)ccn4)c3s2)c2ccccc2Cl)cc1OC [Example 84, N—((R)-(2-Chlorophenyl)(7-(4-((1R)-2,2,2-trifluoro-1-hydroxy-1-methylethyl)-2-pyridinyl)-1-benzothiophen-2-yl)methyl)-3,4-dimethoxybenzenesulfonamide]
14 | 98 | Nc1cccc(C(NS(=O)(=O)c2ccc3c(c2)OCCCO3)c2cc3ccccc3o2)n1 (racemic) [Example 79, N-((6-amino-2-pyridinyl)(1-benzofuran-2-yl)methyl)-3,4-dihydro-2H-1,5-benzodioxepine-7-sulfonamide]
15 | 87 | O=S(=O)(N[C@@H](c1cc2cccc(-c3cc(C(O)(C(F)(F)F)C(F)(F)F)ccn3)c2s1)c1ccccc1Cl)c1ccc2c(c1)OCCCO2 [Example 81, N—((R)-(2-Chlorophenyl)(7-(4-(2,2,2-trifluoro-1-hydroxy-1-(trifluoromethyl)ethyl)-2-pyridinyl)-1-benzothiophen-2-yl)methyl)-3,4-dihydro-2H-1,5-benzodioxepine-7-sulfonamide]
16 | 72 | COc1ccc(S(=O)(=O)N[C@@H](c2cc3cccc(-c4cc([C@](C)(O)C(F)(F)F)ccn4)c3s2)c2ccccc2Cl)cc1OC [Example 86, N—((R)-(2-Chlorophenyl)(7-(4-((1S)-2,2,2-trifluoro-1-hydroxy-1-methylethyl)-2-pyridinyl)-1-benzothiophen-2-yl)methyl)-3,4-dimethoxybenzenesulfonamide]
17 | 47 | O=S(=O)(N[C@@H](c1cc2ccccc2s1)c1ccccc1Cl)c1ccc2c(c1)OCC(F)CO2 (mixture of isomers) [Example 78, N—((R)-1-Benzothiophen-2-yl(2-chlorophenyl)methyl)-3-fluoro-3,4-dihydro-2H-1,5-benzodioxepine-7-sulfonamide]
18 | 38 | C[C@@](O)(c1ccnc(-c2cccc3cc([C@H](NS(=O)(=O)c4ccc5c(c4)OCCCO5)c4ccccc4Cl)sc23)c1)C(F)(F)F [Example 83, N—((R)-(2-Chlorophenyl)(7-(4-((1R)-2,2,2-trifluoro-1-hydroxy-1-methylethyl)-2-pyridinyl)-1-benzothiophen-2-yl)methyl)-3,4-dihydro-2H-1,5-benzodioxepine-7-sulfonamide]
19 | 23 | C[C@](O)(c1ccnc(-c2cccc3cc([C@H](NS(=O)(=O)c4ccc5c(c4)OCCCO5)c4ccccc4Cl)sc23)c1)C(F)(F)F [Example 85, N—((R)-(2-Chlorophenyl)(7-(4-((1S)-2,2,2-trifluoro-1-hydroxy-1-methylethyl)-2-pyridinyl)-1-benzothiophen-2-yl)methyl)-3,4-dihydro-2H-1,5-benzodioxepine-7-sulfonamide]

Each compound was assayed against T2, GK-GKRP (glucokinase / glucokinase regulatory protein) (Homo sapiens, UniProt Q14397) (assay: GKRP LC MS/MS Biochemical Assay (LCMS/MS)). Settings: formation of 13C-glucose-6-phosphate from 13C-glucose by LC MS/MS, human His-hepatic GK, fructose-6-phosphate.
T2 sequence (Q14397 1-625): T1 sequence (Q14397 1-625)
Method: GKRP LC MS/MS Biochemical Assay (LCMS/MS)
This assay is used to directly measure the formation of ^13C-glucose-6-phosphate from ^13C-glucose by LC MS/MS. Begin by preparing the following solutions: Compound Buffer (CB): 50 mM Tris, pH 7.5/4 mM MgCl2/6% DMSO/fresh 10 mM DTT from 1M frozen stock. Enzyme Buffer (EB): 50 mM Tris, pH 7.5/4 mM MgCl2/6% DMSO/fresh 0.1% BSA/fresh 0.01% Brij-35 (10% BSA and 1% Brij-35 stock). GK (Glucokinase) Working Stock (5×): Dilute human His-hepatic GK to 30 nM in EB buffer. […] Seal the plate and incubate for 30 minutes at room temperature while mixing. After 30 minutes add 10 μl of GK Working Stock (5×). Re-seal the plate and incubate for another 30 minutes at room temperature while mixing. After the second 30 minutes, stop the reaction by the addition of 50 μl of 100% acetonitrile, seal, and mix for 5-10 minutes. Run 10 μl of this sample through the LC MS/MS (API 3200, Applied Biosystems, Carlsbad, Calif.). […]
as §1

Row | EC50 [nM] | SMILES
20 | > 50000 | Cc1ccccc1[C@H](NS(=O)(=O)c1ccc2c(c1)OCCCO2)c1cc2ccccc2o1 (single isomer, unassigned) [Example 2 Peak #1]
21 | 1600 | O=S(=O)(NC(c1cc2ccccc2o1)c1ccncc1Cl)c1ccc2c(c1)OCCCO2 (racemic) [Example 28, N-(1-benzofuran-2-yl(3-chloro-4-pyridinyl)methyl)-3,4-dihydro-2H-1,5-benzodioxepine-7-sulfonamide]
22 | 110 | Cc1ccccc1C(NS(=O)(=O)c1ccc2c(c1)OCCCO2)c1cc2ccccc2o1 (racemic) [Example 2, N-(1-benzofuran-2-yl(2-methylphenyl)methyl)-3,4-dihydro-2H-1,5-benzodioxepine-7-sulfonamide]
23 | 43 | Cc1ccccc1[C@@H](NS(=O)(=O)c1ccc2c(c1)OCCCO2)c1cc2ccccc2o1 (single isomer, unassigned) [Example 2 Peak #2]
24 | 1200 | O=S(=O)(NC(c1cc2ccccc2o1)c1cccnc1Cl)c1ccc2c(c1)OCCCO2 (racemic) [Example 27, N-(1-benzofuran-2-yl(2-chloro-3-pyridinyl)methyl)-3,4-dihydro-2H-1,5-benzodioxepine-7-sulfonamide]
